In publication PMC9095706, “TMEM16 scramblases thin the membrane to enable lipid scrambling” (Nature Communications, 2022):

Legend:
afTMEM16 = biological target: T1, afTMEM16 (Aspergillus fumigatus, UniProt Q4WA18); experiment: cryo-EM structure ([…] Å) in MSP1E3 nanodiscs; format: binding; conditions: 0.5 mM Ca2+; 7:3 DOPC:DOPG nanodisc; lipids D4 and D5 built as PG, near dimer interface and lipid pathway; models started from POPG (PGW) and truncated to density
T1 construct: gene AFUA_4G02970; expressed in S. cerevisiae from pDDGFP2, His tag removed with TEV protease, digitonin-purified homodimer, in MSP1E3 nanodiscs or proteoliposomes
T1 sequence (Q4WA18 1-735): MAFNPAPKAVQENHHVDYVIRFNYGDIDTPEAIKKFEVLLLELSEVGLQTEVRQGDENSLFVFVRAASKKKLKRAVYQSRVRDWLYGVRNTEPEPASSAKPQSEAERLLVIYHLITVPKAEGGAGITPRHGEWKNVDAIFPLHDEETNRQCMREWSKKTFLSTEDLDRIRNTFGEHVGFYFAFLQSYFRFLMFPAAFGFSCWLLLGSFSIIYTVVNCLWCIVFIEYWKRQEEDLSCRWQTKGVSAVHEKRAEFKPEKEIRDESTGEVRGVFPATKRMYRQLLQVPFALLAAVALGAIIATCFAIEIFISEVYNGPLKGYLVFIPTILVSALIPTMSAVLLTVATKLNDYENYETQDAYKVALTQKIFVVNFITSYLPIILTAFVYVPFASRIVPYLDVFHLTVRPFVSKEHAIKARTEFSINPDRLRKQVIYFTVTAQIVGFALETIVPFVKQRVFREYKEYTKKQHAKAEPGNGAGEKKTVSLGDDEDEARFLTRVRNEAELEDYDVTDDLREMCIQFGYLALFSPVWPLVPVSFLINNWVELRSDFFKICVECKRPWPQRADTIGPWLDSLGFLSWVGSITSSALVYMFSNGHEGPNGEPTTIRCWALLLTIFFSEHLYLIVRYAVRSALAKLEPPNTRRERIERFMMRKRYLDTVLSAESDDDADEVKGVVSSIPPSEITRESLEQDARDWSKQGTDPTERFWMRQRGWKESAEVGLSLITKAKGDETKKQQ

[1] = biological target: afTMEM16 scramblase from Aspergillus fumigatus (Aspergillus fumigatus); experiment: cryo-EM structure; afTMEM16 reconstituted in lipid nanodiscs (MSP1E3 or MSP2N2; C14, C18 or C22 lipids, 7 PC:3 PG), 50 mM HEPES pH 8.0, 150 mM KCl with 0.5 mM CaCl2 or 5 mM EDTA; homodimer, C2 symmetric reconstructions

Compound | cryo-EM structure (2.3 Å) in MSP1E3 nanodiscs (afTMEM16) | stoichiometry N [1]
CCCCCCCC/C=C\CCCCCCCC(=O)OC[C@H](COP(=O)(O)OCC(O)CO)OC(=O)CCCCCCC/C=C\CCCCCCCC (mixture of isomers) [1,2-dioleoyl-sn-glycero-3-phospho-(1′-rac-glycerol)] | The downward slope of the OL starts at D5, a well-defined PG lipid | –
afTMEM16 scramblase from Aspergillus fumigatus (natural protein) | – | 2
